The results in this text go back to ChEMBL document CHEMBL5226300, “Synthetic Approaches to the New Drugs Approved during 2019” (J Med Chem, 2021).

SMILES strings stand for the structures.

For data set [1], the target named is Voltage-dependent calcium channel subunit alpha-2/delta-1 (Homo sapiens) (UniProt P54289). The experiment in a line: Binding affinity to human alpha2delta1 Voltage-dependent calcium channel assessed as dissociation half life.
Data set [2] deals with Voltage-dependent calcium channel subunit alpha-2/delta-2 (Homo sapiens) (UniProt Q9NY47).
Description: Binding affinity to human alpha2delta2 Voltage-dependent calcium channel assessed as dissociation half life
The target in data set [3] is T1, Sodium/glucose cotransporter 2 (Homo sapiens, UniProt P31639).
T1 sequence (P31639 whole entry): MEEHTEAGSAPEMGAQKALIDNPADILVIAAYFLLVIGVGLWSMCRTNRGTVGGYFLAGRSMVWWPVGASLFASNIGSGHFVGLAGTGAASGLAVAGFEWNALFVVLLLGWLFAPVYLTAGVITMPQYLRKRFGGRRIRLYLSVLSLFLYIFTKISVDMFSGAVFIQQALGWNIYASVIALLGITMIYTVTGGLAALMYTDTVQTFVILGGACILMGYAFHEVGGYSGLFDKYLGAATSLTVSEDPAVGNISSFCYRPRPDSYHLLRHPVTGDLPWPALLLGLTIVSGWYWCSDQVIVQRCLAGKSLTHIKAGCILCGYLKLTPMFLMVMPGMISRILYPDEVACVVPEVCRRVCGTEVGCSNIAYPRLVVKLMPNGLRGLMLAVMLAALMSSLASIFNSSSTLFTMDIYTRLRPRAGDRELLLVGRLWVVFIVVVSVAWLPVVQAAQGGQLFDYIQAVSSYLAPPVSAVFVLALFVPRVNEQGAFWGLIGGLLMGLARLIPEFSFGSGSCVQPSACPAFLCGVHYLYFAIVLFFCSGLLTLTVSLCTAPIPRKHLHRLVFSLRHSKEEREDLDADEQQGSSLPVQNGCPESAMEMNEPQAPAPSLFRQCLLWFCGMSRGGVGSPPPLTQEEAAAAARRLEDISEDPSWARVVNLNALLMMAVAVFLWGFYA
The experiment in a line: Inhibition of SGLT2 (unknown origin).

Data set [4] is described as follows: Half life in human. Type of data set: ADME.

Voltage-dependent calcium channel subunit alpha-2/delta-1 (Homo sapiens), sequence (P54289 25-956 limits assumed): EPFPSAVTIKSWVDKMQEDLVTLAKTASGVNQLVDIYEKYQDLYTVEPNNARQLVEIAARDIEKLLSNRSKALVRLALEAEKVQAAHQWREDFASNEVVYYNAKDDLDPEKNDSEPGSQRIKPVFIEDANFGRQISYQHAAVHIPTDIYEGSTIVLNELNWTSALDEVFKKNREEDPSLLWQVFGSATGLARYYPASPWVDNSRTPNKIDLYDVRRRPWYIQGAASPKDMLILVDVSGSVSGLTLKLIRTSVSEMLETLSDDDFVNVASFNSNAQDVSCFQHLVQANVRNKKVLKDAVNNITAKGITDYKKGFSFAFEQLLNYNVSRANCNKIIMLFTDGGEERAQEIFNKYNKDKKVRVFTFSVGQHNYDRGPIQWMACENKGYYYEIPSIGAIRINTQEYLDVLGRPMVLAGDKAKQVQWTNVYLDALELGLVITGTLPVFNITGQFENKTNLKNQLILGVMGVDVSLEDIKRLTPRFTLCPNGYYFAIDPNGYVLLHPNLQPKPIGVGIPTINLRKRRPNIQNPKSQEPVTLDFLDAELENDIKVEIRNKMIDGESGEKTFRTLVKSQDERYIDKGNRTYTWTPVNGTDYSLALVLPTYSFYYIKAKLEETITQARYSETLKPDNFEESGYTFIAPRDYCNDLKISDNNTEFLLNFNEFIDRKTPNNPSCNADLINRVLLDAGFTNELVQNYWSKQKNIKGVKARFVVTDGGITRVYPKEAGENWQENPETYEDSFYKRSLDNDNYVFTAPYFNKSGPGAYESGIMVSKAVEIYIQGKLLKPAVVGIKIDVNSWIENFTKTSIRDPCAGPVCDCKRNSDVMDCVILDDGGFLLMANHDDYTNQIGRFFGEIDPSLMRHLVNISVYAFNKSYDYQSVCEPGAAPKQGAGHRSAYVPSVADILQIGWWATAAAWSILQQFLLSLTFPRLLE
Voltage-dependent calcium channel subunit alpha-2/delta-1 (Homo sapiens), sequence (P54289 957-1103 limits assumed): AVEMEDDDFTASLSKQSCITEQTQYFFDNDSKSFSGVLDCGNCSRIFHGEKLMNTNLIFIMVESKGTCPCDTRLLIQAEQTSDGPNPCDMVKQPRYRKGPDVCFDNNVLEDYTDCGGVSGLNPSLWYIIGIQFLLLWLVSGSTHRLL
Voltage-dependent calcium channel subunit alpha-2/delta-2 (Homo sapiens), sequence (Q9NY47 19-1001 limits assumed): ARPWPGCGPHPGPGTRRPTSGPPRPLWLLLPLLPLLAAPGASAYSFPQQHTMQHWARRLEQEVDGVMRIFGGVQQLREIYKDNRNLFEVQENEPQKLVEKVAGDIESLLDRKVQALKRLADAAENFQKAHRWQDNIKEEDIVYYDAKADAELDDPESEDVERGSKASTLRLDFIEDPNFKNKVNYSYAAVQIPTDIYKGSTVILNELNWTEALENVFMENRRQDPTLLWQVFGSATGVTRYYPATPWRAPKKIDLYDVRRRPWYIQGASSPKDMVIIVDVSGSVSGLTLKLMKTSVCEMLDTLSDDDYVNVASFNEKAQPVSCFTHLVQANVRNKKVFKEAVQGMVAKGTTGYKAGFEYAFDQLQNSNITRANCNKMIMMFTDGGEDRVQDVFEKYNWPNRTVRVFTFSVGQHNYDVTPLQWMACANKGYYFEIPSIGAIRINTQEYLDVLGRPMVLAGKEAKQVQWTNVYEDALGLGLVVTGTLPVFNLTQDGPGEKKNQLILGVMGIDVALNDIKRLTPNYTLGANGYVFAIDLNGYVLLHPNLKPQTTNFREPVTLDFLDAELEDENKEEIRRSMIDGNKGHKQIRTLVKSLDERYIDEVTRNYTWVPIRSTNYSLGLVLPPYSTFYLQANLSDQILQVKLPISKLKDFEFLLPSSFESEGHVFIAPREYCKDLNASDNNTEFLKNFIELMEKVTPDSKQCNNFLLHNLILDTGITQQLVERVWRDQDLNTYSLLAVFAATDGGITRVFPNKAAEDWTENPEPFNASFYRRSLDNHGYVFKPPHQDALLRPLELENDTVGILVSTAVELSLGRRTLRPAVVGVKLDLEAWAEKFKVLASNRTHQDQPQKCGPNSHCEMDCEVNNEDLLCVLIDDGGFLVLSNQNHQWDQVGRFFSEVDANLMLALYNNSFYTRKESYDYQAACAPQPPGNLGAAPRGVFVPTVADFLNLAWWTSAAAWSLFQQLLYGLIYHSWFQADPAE
Voltage-dependent calcium channel subunit alpha-2/delta-2 (Homo sapiens), sequence (Q9NY47 1002-1150 limits assumed): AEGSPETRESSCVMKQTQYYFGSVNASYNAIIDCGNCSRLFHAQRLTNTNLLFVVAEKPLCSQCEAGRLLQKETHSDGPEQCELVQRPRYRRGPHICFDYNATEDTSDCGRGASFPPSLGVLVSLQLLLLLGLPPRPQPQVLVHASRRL

Turning to `CC(C)C[C@H](CN)CC(=O)O`, the T1/2 in data set [1] and in data set [2] was 1.5 h throughout. Regarding `CCC1=C[C@@H]2[C@H](C1)C[C@]2(CN)CC(=O)O`, the T1/2 in data set [1] is greater than 11 h.

Usually Ki stands for the equilibrium dissociation constant of an inhibitor or competing ligand from its target. The low end stands for a stronger hold on the target, the high end for a looser hold on the target. For orientation: half-life means the time needed for the level to fall by half in the phase considered. High values mean slow loss, low ones fast loss. For `CCOC(=O)OC[C@H]1O[C@@H](Oc2nn(C(C)C)c(C)c2Cc2ccc(OC(C)C)cc2)[C@H](O)[C@@H](O)[C@@H]1O` [REMOGLIFLOZIN ETABONATE], the Ki in data set [3] is 12.4 nM. The molecule also showed a half-life in data set [4] of 2 h.
